Measurements from patent US20190350898A1, “METHODS AND COMPOSITIONS FOR TREATMENT OF ALZHEIMER'S DISEASE” (Neurotrope Bioscience, Inc., priority 2018, published 2019).

Key:
[1] = tested on: patients with advanced Alzheimer's disease; assay: Safety and tolerability, treatment emergent adverse events (TEAEs), same trial; assay type: in vivo, human; conditions: 40 μg group
Protocol: In a double-blind, randomized, placebo-controlled trial, bryostatin was administered by intravenous infusion (˜45 minutes) to patients with advanced Alzheimer's disease for 12 weeks at doses of 20 or 40 μg. Randomization was stratified at baseline by severe (MMSE-2, 4-9) and moderate (MMSE-2, 10-15) dementia, wherein MMSE-2 refers to Mini-Mental State Examination, version 2. The MMSE or Folstein test is a 30-point questionnaire that is used extensively in clinical and research settings to measure cognitive impairment. Low scores indicate greater impairment. […]
Adults aged 55-85 with cognitive deficits present for at least 2 years, MMSE-2 of 4-15, inclusive, and a diagnosis of Alzheimer's dementia were randomly assigned to receive blinded intravenous infusions of bryostatin 24 μg or matching placebo at weeks 0 and 1. […] In one arm, the two 24 μg doses were followed by 20 μg doses at weeks 5, 7, 9 and 11 with the Severe Impairment Battery (SIB) measured at baseline and weeks 5, 9, 13, and 15. In a second arm, the two 48 μg doses at weeks 0 and 1 were followed by 40 μg doses at weeks 5, 7, 9, and 11 with the SIB measured at baseline and weeks 5, 9, 13, and 15. […] The first primary endpoint was safety and tolerability, assessed by treatment emergent adverse events (TEAEs) with a sample size of 150 subjects randomized 1:1:1. […]

[2] = tested on: patients with advanced Alzheimer's disease; assay: ADCS-ADL-SIV (ADCS-ADL Sev) secondary efficacy endpoint, same trial; assay type: in vivo, human; conditions: for ADCS-ADL LS Mean difference between 20 μg group and placebo: week 13
Protocol: Adults aged 55-85 with cognitive deficits present for at least 2 years, MMSE-2 of 4-15, inclusive, and a diagnosis of Alzheimer's dementia were randomly assigned to receive blinded intravenous infusions of bryostatin 24 μg or matching placebo at weeks 0 and 1. The 24 μg and 48 μg doses during the first two weeks of the 20 and 40 μg protocols respectively were considered to be “loading” doses thought to be beneficial from prior experience with Compassionate Use trial patients. Nelson et al., Alzheimers Dis. 2017 58: 521-535. In one arm, the two 24 μg doses were followed by 20 μg doses at weeks 5, 7, 9 and 11 with the Severe Impairment Battery (SIB) measured at baseline and weeks 5, 9, 13, and 15. In a second arm, the two 48 μg doses at weeks 0 and 1 were followed by 40 μg doses at weeks 5, 7, 9, and 11 with the SIB measured at baseline and weeks 5, 9, 13, and 15. The subjects were stratified by MMSE-2 in two strata: Stratum 1 (4-9) and Stratum 2 (10-15). The first primary endpoint was safety and tolerability, assessed by treatment emergent adverse events (TEAEs) with a sample size of 150 subjects randomized 1:1:1. Although efficacy was the secondary measure, the primary efficacy endpoint was SIB improvement at week 13 evaluated using a mixed model for repeated measures. A secondary efficacy endpoint was ADCS-ADL Sev. The primary safety population included all subjects who received at least 1 dose of study drug, and efficacy was evaluated in a modified intent to treat (mITT) population that received at least 1 dose of study drug and had at least one treatment evaluation. Efficacy was evaluated both as a primary end-point in the modified intent-to-treat (mITT) population and also as a primary end point in a Completers population that included all patients that completed the entire protocols as described above.
There was no evidence of treatment by efficacy of acetyl-cholinesterase-inhibitor (AChEI) use interaction. For SIB Total, the two sided p-value for the interaction between treatment and AChEI use was 0.8244 and the two sided p-value for the interaction between treatment, AChEI use and time was 0.9223. Similar results were seen when investigating the effect of AChEI use on treatment effect for ADCS-ADL with p-values of 0.5137 and 0.6256 (two sided), respectively. At week 13, the LS Mean difference between 20 μg group and placebo in SIB Total for AChEI non-users was 2.00 and users was 2.09, and in ADCS-ADL for AChEI non-users was −0.67 and users was 1.99.

## CCC/C=C/C=C/C(=O)O[C@H]1/C(=C/C(=O)OC)C[C@H]2C[C@H]([C@@H](C)O)OC(=O)C[C@H](O)C[C@@H]3C[C@H](OC(C)=O)C(C)(C)[C@](O)(C[C@@H]4C/C(=C/C(=O)OC)C[C@H](/C=C/C(C)(C)[C@]1(O)O2)O4)O3 [Bryostatin, bryostatin-1]
[1]
  Safety results (adverse events): more adverse events
[2]; 20 μg dose
  ADCS-ADL efficacy: significant
[2]; 20 μg dose, completers group
  ADCS-ADL difference from placebo: 1.6
[2]; 20 μg dose, mITT group
  ADCS-ADL difference from placebo: 1.4
[2]; memantine (Namenda) as background SOC therapy or not
  ADCS-ADL, subgroups with and without memantine: not significantly different above placebo
[2]; AChEI non-users
  ADCS-ADL LS Mean difference between 20 μg group and placebo: −0.67
[2]; AChEI users
  ADCS-ADL LS Mean difference between 20 μg group and placebo: 1.99
